Here are results for 10 compounds from patent US8101621B2, “Aminopyridine derivatives having aurora a selective inhibitory action” (MSD K.K., priority 2006, dated 2012).

The IC50 is the concentration that inhibits the measured activity by half.

Several values for one entry are separate records, joined by “and”; a condition that tells them apart may be missing. Identical values can stand only once. Counter-ions that a name gives are not always drawn.

Assay [1] deals with Human cervical cancer cells (HeLa S3). Description: Cell growth inhibitory effect, WST-8 method. Format: cell-based. As to conditions: 72 h, HeLa S3, three days incubation. How it is done:
Fetal calf serum (FCS) was purchased from Moregate Biotech, and DMEM medium was purchased from Invitrogen Corp. WST-8 was purchased from Kishida Chemical Co., Ltd.
(§1) Human cervical cancer cells (HeLa S3) were obtained from the American Type Culture Collection (ATCC).
Cells were suspended in a DMEM medium containing 10% FCS, and the cell suspension was dispensed to a 96-well plastic plate at a rate of 750 cells/100 microliters per well. The plate was incubated overnight in 5% CO2-95% air at 37° C. A drug was subjected to graded dilution in dimethylsulfoxide and further diluted with a DMEM medium containing 10% FCS. Then, the dilution was dispensed to the plate on which cells had been disseminated, at a rate of 100 microliters per well. The plate was incubated for further three days in 5% CO2-95% air at 37° C. Cell growth after incubation was measured by the WST-8 method (H. Tominaga, et al., Anal. Commun., 36, 47-50 (1999)). Here, the WST-8 method refers to a method in which 20 microliters of a WST-8 reagent solution is added to each well, incubation is conducted at 37° C. for 45 minutes, the plate is stirred, and the amount of formazan produced is measured by a calorimetric method to determine the inhibitory rate of the drug. The concentration for 50% growth inhibition (EC50, μM) of the compound was determined.
(In general: Tetrazolium assays rely on reduction of a dye to a coloured formazan, in cell work by metabolically active cells.)

The test system is the same in assay [2]. Description: Effect by combined use with paclitaxel in cells, WST-8 method. Format: cell-based. The settings on record: three days, DMSO = 0%; for Cell growth inhibitory effect by combined administration of paclitaxel and the compound of Example (%): HeLa S3, compound 1.0 μM + paclitaxel 1 nM; for inhibition at 1 µM: HeLa S3, compound 1.0 μM alone, read-out: Cell growth inhibitory effect by sole administration of the compound of Example (%). On the procedure:
Fetal calf serum (FCS) was purchased from Moregate Biotech, DMEM medium from Invitrogen Corp., paclitaxel (tradename: Taxol) from Sigma-Aldrich, Inc., and WST-8 from Kishida Chemical Co., Ltd.
as §1
Cells were suspended in a DMEM medium containing 10% FCS, and the cell suspension was dispensed to two 96-well plastic plates at a rate of 750 cells/100 microliters per well. The plates were incubated overnight in 5% CO2-95% air at 37° C. A drug was subjected to graded dilution in dimethylsulfoxide and further diluted with […] a DMEM medium containing 10% FCS and also containing 2 nM paclitaxel. Then, the dilutions were each dispensed to one of the plates on which cells had been disseminated, at a rate of 100 microliters per well. The final concentration of paclitaxel at this stage was 1 nM. Also, the concentrations in the case of sole administration of the compound according to the invention were 0.03, 0.1, 0.3, 1 and 3 μM. The plates were incubated for further three days in 5% CO2-95% air at 37° C. Cell growth after incubation was measured by the WST-8 method (H. Tominaga, et al., Anal. Commun., 36, 47-50 (1999)). Here, the WST-8 method refers to a method in which 20 microliters of a WST-8 reagent solution is added to each well, incubation is conducted at 37° C. for 45 minutes, the plate is stirred, and the amount of formazan produced is measured by a colorimetric method to determine the inhibitory rate of the drug. The growth inhibitory effects of paclitaxel and of the compound according to the invention were determined, with the value obtained in sole treatment of DMSO being defined as 0%.

Assay [3] has as its target T1, Aurora A (Homo sapiens, UniProt O14965).
T1 construct: histidine tag (N); made in house; host or cells: Escherichia coli BL21-CodonPlus (DE3)-RIL
T1 sequence (O14965 1-403): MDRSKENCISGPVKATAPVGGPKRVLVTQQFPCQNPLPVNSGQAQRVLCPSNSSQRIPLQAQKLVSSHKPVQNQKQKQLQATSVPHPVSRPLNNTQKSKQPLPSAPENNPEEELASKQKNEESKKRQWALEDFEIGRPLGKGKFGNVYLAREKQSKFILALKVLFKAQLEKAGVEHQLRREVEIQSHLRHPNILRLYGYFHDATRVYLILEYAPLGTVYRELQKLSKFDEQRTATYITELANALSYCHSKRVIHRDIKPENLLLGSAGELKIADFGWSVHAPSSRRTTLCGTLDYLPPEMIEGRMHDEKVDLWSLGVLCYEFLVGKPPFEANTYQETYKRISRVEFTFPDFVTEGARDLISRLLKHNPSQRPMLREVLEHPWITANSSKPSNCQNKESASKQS
Description: Aurora A inhibitory action (Kemptide substrate, [γ-33P]ATP, 20 μM ATP). It counts as biochemical. The settings on record: 30° C., 20 minutes. An excerpt: cDNA of Aurora A having histidine tag fused at the amino terminal was integrated into an expression vector, which was then highly expressed in Escherichia coli BL21-CodonPlus (DE3)-RIL cells. The Escherichia coli cells were recovered and solubilized, and then the histidine-tagged Aurora A protein was adsorbed onto a nickel chelate column and eluted from the column with imidazole. The active fraction was desalted with a desalting column to give a pure enzyme.
For measurement of the activity of Aurora A, the substrate used was Kemptide (Leu-Arg-Arg-Ala-Ser-Leu-Gly) (SEQ.ID.NO.: 1), a synthetic peptide purchased from Sigma-Aldrich, Inc. [Certificate of analysis (Upstate, Inc.)].
Reaction was conducted by a partial modification of a method by Upstate, Inc. [Kinase Profiler™ Assay Protocols]. The amount of the reaction liquid was 21.1 μL, and the composition of the reaction buffer (R2 buffer) was 50 mM Tris-hydrochloride buffer (pH 7.4)/15 mM magnesium acetate/0.2 mM ethylenediamine-N,N,N′,N′-tetraacetate (EDTA). To this, purified Aurora A, 100 μM of a substrate peptide, 20 μM of unlabeled adenosine triphosphate (ATP) and 0.5 μCi of [γ-^33P] labeled ATP (2,500 Ci/mmole or more) were added, and the mixture was reacted at 30° C. for 20 minutes. Then, 10 μL of 350 mM phosphate buffer was added to the reaction system to stop the reaction. The substrate peptide was adsorbed on a P81 paper filter 96-well plate and then washed with 130 mM phosphate buffer for several times. The radiation activity of the peptide was measured with a liquid scintillation counter. The [γ-^33P] labeled ATP was purchased from Amersham Biosciences Co., Ltd.
(§2) The compound to be tested was added to the reaction system such that a dilution series of the compound in dimethylsulfoxide was first prepared, and 1.1 μL of this solution was added. A control was provided by adding 1.1 μL of DMSO to the reaction system.

In assay [4] the target is T2, Aurora B (Homo sapiens, UniProt Q96GD4).
T2 construct: histidine tag (N); made in house; host or cells: Escherichia coli BL21-CodonPlus (DE3)-RIL
T2 sequence (Q96GD4 whole entry): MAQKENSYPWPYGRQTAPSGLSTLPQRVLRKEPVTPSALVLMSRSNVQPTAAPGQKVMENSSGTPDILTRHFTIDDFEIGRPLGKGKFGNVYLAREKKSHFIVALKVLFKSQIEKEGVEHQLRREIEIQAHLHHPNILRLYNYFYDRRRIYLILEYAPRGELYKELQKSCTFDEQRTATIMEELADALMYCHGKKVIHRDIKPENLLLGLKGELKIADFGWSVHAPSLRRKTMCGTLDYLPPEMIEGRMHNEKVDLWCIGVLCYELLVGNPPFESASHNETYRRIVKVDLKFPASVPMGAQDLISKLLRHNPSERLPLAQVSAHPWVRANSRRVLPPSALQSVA
The assay is described as follows: Aurora B inhibitory action (Kemptide substrate, [γ-33P]ATP, 100 μM ATP). The settings on record: 30° C., 20 minutes. Format: biochemical.
From the text: cDNA of Aurora B having histidine tag fused at the amino terminal was integrated into an expression vector, which was then highly expressed in Escherichia coli BL21-CodonPlus (DE3)-RIL cells. The Escherichia coli cells were recovered and solubilized, and then the histidine-tagged Aurora A protein was adsorbed onto a nickel chelate column and eluted from the column with imidazole. The active fraction was desalted with a desalting column to give a pure enzyme.
For measurement of the activity of Aurora B, the substrate used was Kemptide (Leu-Arg-Arg-Ala-Ser-Leu-Gly) (SEQ.ID.NO.: 1), a synthetic peptide purchased from Sigma-Aldrich, Inc. [Certificate of analysis (Upstate, Inc.)].
Reaction was conducted by a partial modification of the method of activity measurement for Aurora A. The amount of the reaction liquid was 21.1 μL, and the composition of the reaction buffer (R2 buffer) was 50 mM Tris-hydrochloride buffer (pH 7.4)/15 mM magnesium acetate/0.2 mM ethylenediamine-N,N,N′,N′-tetraacetate (EDTA). To this, purified Aurora B, 100 μM of a substrate peptide, 100 μM of unlabeled adenosine triphosphate (ATP) and 1 μCi of [γ-^33P] labeled ATP (2,500 Ci/mmole or more) were added, and the mixture was reacted at 30° C. for 20 minutes. Then, 10 μL of 350 mM phosphate buffer was added to the reaction system to stop the reaction. The substrate peptide was adsorbed on a P81 paper filter 96-well plate and then washed with 130 mM phosphate buffer for several times. The radiation activity of the peptide was measured with a liquid scintillation counter. The [γ-^33P] labeled ATP was purchased from Amersham Biosciences Co., Ltd.
as §2

With `Cc1cc(Nc2cc[nH]n2)nc(CN2C[C@@H]3C[C@H]2CN3C(=O)c2cccc(Cl)c2F)n1` [Example 1, 2-(((1S,4S)-5-(3-chloro-2-fluorobenzoyl)-2,5-diazabicyclo[2.2.1]hept-2-yl)methyl)-6-methyl-N-1H-pyrazol-3-ylpyrimidine-4-amine], the IC50 in assay [1] stood at 5080 nM; in assay [3] it was 3 nM; in assay [4], 640 nM. The “Cell growth inhibitory effect by combined administration of paclitaxel and the compound of Example (%)” value (from here on “Cell growth inhibitory effect … of Example (%)”) in assay [2] is given as 83.0%. Besides, the inhibition at 1 µM in assay [2] (Homo sapiens, HeLa S3, 72 h) came out at 14.3%.
In the same order, the values of `O=C(c1cccc(C(F)(F)F)c1F)N1C[C@@H]2C[C@H]1CN2Cc1nccc(Nc2cc[nH]n2)n1` [Example 6, 2-(((1S,4S)-5-(2-fluoro-3-(trifluoromethyl)benzoyl)-2,5-diazabicyclo[2.2.1]hept-2-yl)methyl)-N-1H-pyrazol-3-ylpyrimidine-4-amine] are 9750 nM, 6.1 nM, 2800 nM, 71.7% and 1.7%.
As to `Cc1cc(Nc2cc(C)[nH]n2)nc(CN2C[C@@H]3C[C@H]2CN3C(=O)c2cccc(Cl)c2F)n1` [Example 7], the 50% inhibitory concentration (IC50) was 5.7 nM in assay [3] and 300 nM in assay [4].
As for `Cc1cc(Nc2ccnc(CN3C[C@@H]4C[C@H]3CN4C(=O)c3cccc(Cl)c3F)n2)n[nH]1` [Example 9, 2-(((1S,4S)-5-(3-chloro-2-fluorobenzoyl)-2,5-diazabicyclo[2.2.1]hept-2-yl)methyl)-N-(5-methyl-1H-pyrazol-3-yl)pyrimidine-4-amine], the “Cell growth inhibitory effect … of Example (%)” value in assay [2] was found to be 79.5%. In addition, the inhibition at 1 µM in assay [2] (Homo sapiens, HeLa S3, 72 h) is 12.4%. Also, the half-inhibitory concentration (IC50) in assay [3] was found to be 9.8 nM; in assay [4], 690 nM.
With `O=C(c1cccc(Cl)c1Cl)N1C[C@@H]2C[C@H]1CN2Cc1cncc(Nc2cc[nH]n2)n1` [Example 10, 6-(((1S,4S)-5-(2,3-dichlorobenzoyl)-2,5-diazabicyclo[2.2.1]hept-2-yl)methyl)-N-1H-pyrazol-3-ylpyrazine-2-amine trifluoroacetate], the IC50 in assay [1] stood at 4600 nM; in assay [3], 7.1 nM; in assay [4], 2100 nM. Besides, the “Cell growth inhibitory effect … of Example (%)” value in assay [2] is 84.8%. In addition, the inhibition at 1 µM in assay [2] (Homo sapiens, HeLa S3, 72 h) turned out to be 8.9%.
Take `O=C(c1cccc(C(F)(F)F)c1Cl)N1C[C@H]2C[C@@H]1CN2Cc1cncc(Nc2cc[nH]n2)n1` [Example 12]: the figures for the IC50 in assay [3] and in assay [4] were 4.8 nM and 2300 nM, respectively.
In the same order, the values of `CN(C)C(=O)c1cc(CN2C[C@@H]3C[C@H]2CN3C(=O)c2cccc(C(F)(F)F)c2F)nc(Nc2nccs2)c1` [Example 22, 2-(((1S,4S)-5-(2-fluoro-3-(trifluoromethyl)benzoyl)-2,5-diazabicyclo[2.2.1]hept-2-yl)methyl)-N,N-dimethyl-6-(1,3-thiazol-2-ylamino)isonicotinamide trifluoroacetate] are 1.4 nM and 590 nM.
In the same order, the values of `CN(C)C(=O)c1cc(CN2C[C@@H]3C[C@H]2CN3C(=O)c2cccc(Cl)c2C#N)nc(Nc2nccs2)c1` [Example 23, 2-(((1S,4S)-5-(3-chloro-2-cyanobenzoyl)-2,5-diazabicyclo[2.2.1]hept-2-yl)methyl)-N,N-dimethyl-6-(1,3-thiazol-2-ylamino)isonicotinamide trifluoroacetate] are 1.4 nM and 330 nM.
Take `CN(C)C(=O)c1cc(CN2C[C@@H]3C[C@H]2CN3C(=O)c2cccc(C(F)(F)F)c2C#N)nc(Nc2nccs2)c1` [Example 24, 2-(((1S,4S)-5-(2-cyano-3-(trifluoromethyl)benzoyl)-2,5-diazabicyclo[2.2.1]hept-2-yl)methyl)-N,N-dimethyl-6-(1,3-thiazol-2-ylamino)isonicotinamide]: the IC50 in assay [3] was found to be 1.1 nM; in assay [4] it was 190 nM.
Take `CC(=O)O[C@H]1C(=O)[C@@]2(C)[C@H]([C@H](OC(=O)c3ccccc3)[C@]3(O)C[C@H](OC(=O)[C@H](O)[C@@H](NC(=O)c4ccccc4)c4ccccc4)C(C)=C1C3(C)C)[C@]1(OC(C)=O)CO[C@@H]1C[C@@H]2O` [paclitaxel, reference compound]: the “Cell growth inhibitory effect by sole administration of paclitaxel (1 nM) (%)” value in assay [2] (HeLa S3, paclitaxel 1 nM alone) was 47.1% and 51.4%. Besides, the inhibition at 0.001 µM in assay [2] (Homo sapiens, HeLa S3, 72 h, HeLa S3, paclitaxel 1 nM alone, read-out: Cell growth inhibitory effect by sole administration of paclitaxel (1 nM) (%)) is 47.2%.
